What was measured:
[1] = system: angiotensin I-induced hypertensive rats; test: oral antihypertensive activity in angiotensin I-induced hypertensive rats; format: in vivo; conditions: Rattus norvegicus, dose for 50% reduction in angiotensin I-induced hypertension, read-out: I50 (ID50, antihypertensive activity)
[2] = biological target: T1, angiotensin converting enzyme (Oryctolagus cuniculus, UniProt P12822); test: angiotensin converting enzyme inhibition (ACEI activity), method of Science 196, 441-4 (1977); format: biochemical; conditions: amount required for 50% inhibitive effect, read-out: I50 (ACEI activity)
T1 sequence (P12822 34-1310): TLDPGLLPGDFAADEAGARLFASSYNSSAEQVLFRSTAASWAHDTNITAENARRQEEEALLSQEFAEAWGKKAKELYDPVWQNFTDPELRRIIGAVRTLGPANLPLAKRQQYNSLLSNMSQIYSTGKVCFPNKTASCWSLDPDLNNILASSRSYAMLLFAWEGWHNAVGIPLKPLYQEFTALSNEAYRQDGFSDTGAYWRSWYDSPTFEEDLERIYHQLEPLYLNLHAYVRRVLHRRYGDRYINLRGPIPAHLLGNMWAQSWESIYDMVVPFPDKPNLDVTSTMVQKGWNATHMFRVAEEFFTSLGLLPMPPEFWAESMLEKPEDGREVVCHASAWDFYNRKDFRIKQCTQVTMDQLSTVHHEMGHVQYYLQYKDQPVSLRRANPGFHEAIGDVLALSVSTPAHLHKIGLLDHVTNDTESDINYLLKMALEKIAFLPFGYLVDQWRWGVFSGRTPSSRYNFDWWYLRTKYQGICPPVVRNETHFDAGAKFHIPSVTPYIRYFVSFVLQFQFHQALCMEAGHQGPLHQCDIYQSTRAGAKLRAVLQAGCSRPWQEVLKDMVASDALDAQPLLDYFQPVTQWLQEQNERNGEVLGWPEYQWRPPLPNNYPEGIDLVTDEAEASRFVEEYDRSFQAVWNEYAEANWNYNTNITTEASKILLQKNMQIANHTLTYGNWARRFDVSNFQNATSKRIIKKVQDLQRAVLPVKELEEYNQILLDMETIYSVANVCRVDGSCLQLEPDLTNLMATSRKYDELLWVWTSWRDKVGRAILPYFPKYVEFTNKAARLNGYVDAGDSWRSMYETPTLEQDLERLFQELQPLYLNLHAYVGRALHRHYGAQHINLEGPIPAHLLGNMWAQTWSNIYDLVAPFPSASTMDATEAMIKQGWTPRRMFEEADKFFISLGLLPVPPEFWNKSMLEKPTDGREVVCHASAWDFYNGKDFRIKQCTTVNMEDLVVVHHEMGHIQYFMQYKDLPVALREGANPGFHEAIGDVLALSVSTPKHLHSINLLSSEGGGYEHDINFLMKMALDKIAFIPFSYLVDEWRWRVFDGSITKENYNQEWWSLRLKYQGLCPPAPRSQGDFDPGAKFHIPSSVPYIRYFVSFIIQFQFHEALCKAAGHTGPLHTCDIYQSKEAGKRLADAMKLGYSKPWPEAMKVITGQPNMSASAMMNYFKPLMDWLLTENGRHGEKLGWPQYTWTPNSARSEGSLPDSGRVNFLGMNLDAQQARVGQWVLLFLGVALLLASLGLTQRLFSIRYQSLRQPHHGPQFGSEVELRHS
Excerpt: The I50 value represents the amount in micromols required to give an inhibitive effect of 50% in the tests using the procedure described in the Science article.

Compound	ED50 [1] [mg/kg]	IC50 [2] [nM]
CC(CS)C(=O)N(CC(=O)O)C1Cc2ccccc2C1 (centres unmarked) [2-Indanyl H, N-(3-Mercapto-2-methylpropanoyl)-N-(indan-2-yl)glycine]	0.16	
CC(=O)SCC(C)C(=O)N(CC(=O)O)C1CCCCCC1 (centres unmarked) [Cycloheptyl CH3 CO, N-(3-Acetylthio-2-methylpropanoyl)-N-cycloheptylglycine]		88
CC(CS)C(=O)N(CC(=O)O)C1CCCCCC1 (centres unmarked) [Cycloheptyl H, N-(3-Mercapto-2-methylpropanoyl)-N-cycloheptylglycine]	0.021	
CC(=O)SCC(C)C(=O)N(CC(=O)O)C1CCCC1 (centres unmarked) [Cyclopentyl CH3 CO, N-(3-Acetylthio-2-methylpropanoyl)-N-cyclopentylglycine]	0.16	44
CC(CS)C(=O)N(CC(=O)O)C1CCCC1 (centres unmarked) [Cyclopentyl H, N-(3-Mercapto-2-methylpropanoyl)-N-cyclopentylglycine]	0.15	
CC(=O)SCC(C)C(=O)N(CC(=O)O)C1CC1 (centres unmarked) [Cyclopropyl CH3 CO, N-(3-Acetylthio-2-methylpropanoyl)-N-(cyclopropyl)glycine]	0.13	
CC(CS)C(=O)N(CC(=O)O)C1CC1 (centres unmarked) [Cyclopropyl H, N-(3-Mercapto-2-methylpropanoyl)-N-cyclopropylglycine]	0.14	27
CC(CS)C(=O)N(CC(=O)O)C1CCC1 (centres unmarked) [Cylcobutyl H, N-(3-Mercapto-2-methylpropanoyl)-N-cyclobutylglycine]	0.21	
COCCN(CC(=O)O)C(=O)C(C)CS (centres unmarked) [H3 CO(CH2)2 H]		95
CSCCCN(CC(=O)O)C(=O)C(C)CS (centres unmarked) [H3 CS(CH2)3 H, N-(3-Mercapto-2-methylpropanoyl)-N-(3-methylthiopropyl)glycine]		55
CC(=O)SCC(C)C(=O)N(CC(=O)O)c1ccccc1 (centres unmarked) [Phenyl CH3 CO, N-(3-Acetylthio-2-methylpropanoyl)-N-phenylglycine]	0.23	
CC(=O)SCC(C)C(=O)N(CC(=O)O)[C@@H]1C[C@H]2CC[C@@H]1C2 (stereo partly drawn) [exo-Norbornyl CH3 CO, N-(3-Acetylthio-2-methylpropanoyl)-N-(exo-norbornyl)glycine]	0.06	22
CC(CS)C(=O)N(CC(=O)O)[C@@H]1C[C@H]2CC[C@@H]1C2 (stereo partly drawn) [exo-Norbornyl H, N-(3-Mercapto-2-methylpropanoyl)-N-(exo-norbornyl)glycine]	0.11	25

— patent publication US4256761A, “Antihypertensive amides” (USV Pharmaceutical Corporation, priority 1979, dated 1981)
